From PubChem BioAssay (NCI)
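1) Cells in 96-well plates. 2) Compound, 48 h, 5 concentrations. 3) Linear interpolation between surrounding doses. 4) Unreached endpoint = highest concentration. Definition used: TGI = concentration required for complete inhibition of growth.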

Columns and labels:
Experiment in all cases: NCI anticancer screen, dose series, 48 h
SF-539 CNS = test system: SF-539 CNS
HL-60(TB) leukemia = test system: HL-60(TB) leukemia
M14 melanoma = test system: M14 melanoma
IGROV1 ovarian = test system: IGROV1 ovarian
OVCAR-3 ovarian = test system: OVCAR-3 ovarian
UACC-62 melanoma = test system: UACC-62 melanoma
OVCAR-8 ovarian = test system: OVCAR-8 ovarian
OVCAR-4 ovarian = test system: OVCAR-4 ovarian
ACHN renal = test system: ACHN renal
HT29 colon = test system: HT29 colon
PC-3 prostate = test system: PC-3 prostate
NCI-H23 lung = test system: NCI-H23 lung
HS 578T breast = test system: HS 578T breast
SK-OV-3 ovarian = test system: SK-OV-3 ovarian
SN12C renal = test system: SN12C renal
A549 NSCLC = test system: A549 NSCLC
SK-MEL-2 melanoma = test system: SK-MEL-2 melanoma
HCT-116 colon = test system: HCT-116 colon
UO-31 renal = test system: UO-31 renal
SF-268 CNS = test system: SF-268 CNS
UACC-257 melanoma = test system: UACC-257 melanoma
LOX IMVI melanoma = test system: LOX IMVI melanoma
U251 CNS = test system: U251 CNS
MDA-MB-231 breast = test system: MDA-MB-231 breast
MDA-N = test system: MDA-N
COLO 205 colon = test system: COLO 205 colon
HOP-62 NSCLC = test system: HOP-62 NSCLC
SW-620 colon = test system: SW-620 colon
EKVX NSCLC = test system: EKVX NSCLC
SK-MEL-28 melanoma = test system: SK-MEL-28 melanoma
HCC-2998 colon = test system: HCC-2998 colon
T-47D breast = test system: T-47D breast
A498 renal = test system: A498 renal
SF-295 CNS = test system: SF-295 CNS
HOP-92 NSCLC = test system: HOP-92 NSCLC
BT-549 breast = test system: BT-549 breast
SNB-75 CNS = test system: SNB-75 CNS
SK-MEL-5 melanoma = test system: SK-MEL-5 melanoma
NCI-H226 lung = test system: NCI-H226 lung
DU-145 prostate = test system: DU-145 prostate
MOLT-4 leukemia = test system: MOLT-4 leukemia
RXF 393 renal = test system: RXF 393 renal
K-562 leukemia = test system: K-562 leukemia
OVCAR-5 ovarian = test system: OVCAR-5 ovarian
RPMI-8226 leukemia = test system: RPMI-8226 leukemia
CCRF-CEM leukemia = test system: CCRF-CEM leukemia
SNB-19 CNS = test system: SNB-19 CNS
MCF7 breast = test system: MCF7 breast
KM12 colon = test system: KM12 colon
786-0 renal = test system: 786-0 renal
NCI/ADR-RES ovarian = test system: NCI/ADR-RES ovarian
MDA-MB-435 = test system: MDA-MB-435
NCI-H522 lung = test system: NCI-H522 lung
HCT-15 colon = test system: HCT-15 colon
NCI-H460 lung = test system: NCI-H460 lung
SR leukemia = test system: SR leukemia
CAKI-1 renal = test system: CAKI-1 renal
TK-10 renal = test system: TK-10 renal
MALME-3M melanoma = test system: MALME-3M melanoma

For `CC(=O)C1=C(C)N2C(=NC3=C(CCc4ccccc43)C2c2ccc(F)cc2)S1` (stereo not drawn), the TGI (SF-539 CNS) was > 100 µM, the TGI (HL-60(TB) leukemia) was 92.4 µM and the TGI (M14 melanoma) was > 100 µM. The TGI (IGROV1 ovarian) was > 100 µM, the TGI (OVCAR-3 ovarian) was > 100 µM and the TGI (UACC-62 melanoma) was > 100 µM. The TGI (OVCAR-8 ovarian) was > 100 µM, the TGI (OVCAR-4 ovarian) was > 100 µM and the TGI (ACHN renal) was > 100 µM. The TGI (HT29 colon) was > 100 µM, the TGI (PC-3 prostate) was > 100 µM and the TGI (NCI-H23 lung) was > 100 µM. For the same compound, the TGI (HS 578T breast) was > 100 µM, the TGI (SK-OV-3 ovarian) was > 100 µM and the TGI (SN12C renal) was > 100 µM. For the same compound, the TGI (A549 NSCLC) was > 100 µM, the TGI (SK-MEL-2 melanoma) was > 100 µM and the TGI (HCT-116 colon) was > 100 µM. For the same compound, the TGI (UO-31 renal) was > 100 µM, the TGI (SF-268 CNS) was > 100 µM and the TGI (UACC-257 melanoma) was > 100 µM. For the same compound, the TGI (LOX IMVI melanoma) was > 100 µM, the TGI (U251 CNS) was > 100 µM and the TGI (MDA-MB-231 breast) was > 100 µM. The TGI (MDA-N) was > 100 µM, the TGI (COLO 205 colon) was > 100 µM and the TGI (HOP-62 NSCLC) was > 100 µM. The TGI (SW-620 colon) was > 100 µM, the TGI (EKVX NSCLC) was > 100 µM and the TGI (SK-MEL-28 melanoma) was > 100 µM. For the same compound, the TGI (HCC-2998 colon) was > 100 µM, the TGI (T-47D breast) was > 100 µM and the TGI (A498 renal) was > 100 µM. For the same compound, the TGI (SF-295 CNS) was > 100 µM, the TGI (HOP-92 NSCLC) was > 100 µM and the TGI (BT-549 breast) was > 100 µM. The TGI (SNB-75 CNS) was > 100 µM, the TGI (SK-MEL-5 melanoma) was > 100 µM and the TGI (NCI-H226 lung) was > 100 µM. For the same compound, the TGI (DU-145 prostate) was > 100 µM, the TGI (MOLT-4 leukemia) was 6.54 µM and the TGI (RXF 393 renal) was > 100 µM. For the same compound, the TGI (K-562 leukemia) was 90.4 µM, the TGI (OVCAR-5 ovarian) was > 100 µM and the TGI (RPMI-8226 leukemia) was 85 µM. The TGI (CCRF-CEM leukemia) was > 100 µM, the TGI (SNB-19 CNS) was > 100 µM and the TGI (MCF7 breast) was > 100 µM. The TGI (KM12 colon) was > 100 µM, the TGI (786-0 renal) was > 100 µM and the TGI (NCI/ADR-RES ovarian) was > 100 µM. The TGI (MDA-MB-435) was > 100 µM.

In the case of `COc1ccc(C2NC(=S)Nc3c2c(=O)oc2c3ccc3ccccc32)cc1` (stereo not drawn), the TGI (NCI-H522 lung) is reported as > 100 µM, the TGI (HL-60(TB) leukemia) is reported as > 100 µM and the TGI (M14 melanoma) is reported as > 100 µM. For the same compound, the TGI (HCT-15 colon) was > 100 µM, the TGI (IGROV1 ovarian) was > 100 µM and the TGI (OVCAR-3 ovarian) was > 100 µM. For the same compound, the TGI (UACC-62 melanoma) was > 100 µM, the TGI (OVCAR-8 ovarian) was > 100 µM and the TGI (OVCAR-4 ovarian) was > 100 µM. For the same compound, the TGI (NCI-H460 lung) was > 100 µM, the TGI (ACHN renal) was > 100 µM and the TGI (HT29 colon) was > 100 µM. The TGI (PC-3 prostate) was > 100 µM, the TGI (NCI-H23 lung) was > 100 µM and the TGI (SR leukemia) was > 100 µM. The TGI (HS 578T breast) was > 100 µM, the TGI (SK-OV-3 ovarian) was > 100 µM and the TGI (SN12C renal) was > 100 µM. For the same compound, the TGI (A549 NSCLC) was > 100 µM, the TGI (SK-MEL-2 melanoma) was > 100 µM and the TGI (CAKI-1 renal) was > 100 µM. The TGI (HCT-116 colon) was > 100 µM, the TGI (UO-31 renal) was > 100 µM and the TGI (SF-268 CNS) was > 100 µM. The TGI (UACC-257 melanoma) was > 100 µM, the TGI (LOX IMVI melanoma) was > 100 µM and the TGI (U251 CNS) was > 100 µM. The TGI (MDA-MB-231 breast) was > 100 µM, the TGI (MDA-N) was > 100 µM and the TGI (COLO 205 colon) was > 100 µM. For the same compound, the TGI (HOP-62 NSCLC) was > 100 µM, the TGI (SW-620 colon) was > 100 µM and the TGI (EKVX NSCLC) was > 100 µM. For the same compound, the TGI (SK-MEL-28 melanoma) was > 100 µM, the TGI (T-47D breast) was > 100 µM and the TGI (A498 renal) was > 100 µM. For the same compound, the TGI (SF-295 CNS) was > 100 µM, the TGI (HOP-92 NSCLC) was > 100 µM and the TGI (TK-10 renal) was > 100 µM. For the same compound, the TGI (BT-549 breast) was > 100 µM, the TGI (SNB-75 CNS) was 96.4 µM and the TGI (SK-MEL-5 melanoma) was > 100 µM. The TGI (NCI-H226 lung) was > 100 µM, the TGI (MALME-3M melanoma) was > 100 µM and the TGI (DU-145 prostate) was > 100 µM. The TGI (MOLT-4 leukemia) was > 100 µM, the TGI (RXF 393 renal) was > 100 µM and the TGI (K-562 leukemia) was > 100 µM. The TGI (OVCAR-5 ovarian) was > 100 µM, the TGI (RPMI-8226 leukemia) was > 100 µM and the TGI (CCRF-CEM leukemia) was > 100 µM. The TGI (SNB-19 CNS) was > 100 µM, the TGI (MCF7 breast) was > 100 µM and the TGI (KM12 colon) was > 100 µM. The TGI (786-0 renal) was > 100 µM, the TGI (NCI/ADR-RES ovarian) was > 100 µM and the TGI (MDA-MB-435) was > 100 µM.

For `C[N+]1(CCC(=O)c2ccco2)CC2CCC(CC2)C1` (stereo not drawn), the TGI (SF-539 CNS) was > 100 µM, the TGI (NCI-H522 lung) was > 100 µM and the TGI (M14 melanoma) was > 100 µM. For the same compound, the TGI (HCT-15 colon) was > 100 µM, the TGI (IGROV1 ovarian) was > 100 µM and the TGI (OVCAR-3 ovarian) was > 100 µM. The TGI (UACC-62 melanoma) was > 100 µM, the TGI (OVCAR-8 ovarian) was > 100 µM and the TGI (OVCAR-4 ovarian) was > 100 µM. The TGI (NCI-H460 lung) was > 100 µM, the TGI (ACHN renal) was > 100 µM and the TGI (HT29 colon) was > 100 µM. The TGI (PC-3 prostate) was > 100 µM, the TGI (NCI-H23 lung) was > 100 µM and the TGI (SR leukemia) was > 100 µM. For the same compound, the TGI (HS 578T breast) was > 100 µM, the TGI (SN12C renal) was > 100 µM and the TGI (A549 NSCLC) was > 100 µM. The TGI (SK-MEL-2 melanoma) was > 100 µM, the TGI (CAKI-1 renal) was > 100 µM and the TGI (HCT-116 colon) was > 100 µM. For the same compound, the TGI (UO-31 renal) was > 100 µM, the TGI (SF-268 CNS) was > 100 µM and the TGI (UACC-257 melanoma) was > 100 µM. For the same compound, the TGI (LOX IMVI melanoma) was > 100 µM, the TGI (U251 CNS) was > 100 µM and the TGI (MDA-MB-231 breast) was > 100 µM. The TGI (MDA-N) was > 100 µM, the TGI (COLO 205 colon) was > 100 µM and the TGI (SW-620 colon) was > 100 µM. For the same compound, the TGI (EKVX NSCLC) was > 100 µM, the TGI (SK-MEL-28 melanoma) was > 100 µM and the TGI (T-47D breast) was > 100 µM. For the same compound, the TGI (A498 renal) was > 100 µM, the TGI (SF-295 CNS) was > 100 µM and the TGI (HOP-92 NSCLC) was > 100 µM. The TGI (TK-10 renal) was > 100 µM, the TGI (BT-549 breast) was > 100 µM and the TGI (SNB-75 CNS) was > 100 µM. The TGI (SK-MEL-5 melanoma) was > 100 µM, the TGI (NCI-H226 lung) was > 100 µM and the TGI (MALME-3M melanoma) was > 100 µM. For the same compound, the TGI (DU-145 prostate) was > 100 µM, the TGI (MOLT-4 leukemia) was > 100 µM and the TGI (RXF 393 renal) was > 100 µM. The TGI (K-562 leukemia) was > 100 µM, the TGI (OVCAR-5 ovarian) was > 100 µM and the TGI (RPMI-8226 leukemia) was > 100 µM. For the same compound, the TGI (SNB-19 CNS) was > 100 µM, the TGI (MCF7 breast) was > 100 µM and the TGI (KM12 colon) was > 100 µM. For the same compound, the TGI (786-0 renal) was > 100 µM, the TGI (NCI/ADR-RES ovarian) was > 100 µM and the TGI (MDA-MB-435) was > 100 µM.
